The nature of this series: RP, Thermo Scientific Accucore C18, 150 × 2.1 mm, 2.6 µm, 24 °C, 0.28 mL/min, estimated dead time 0.83 min; A: 90% water + 10% acetonitrile + 10 mM ammonium acetate; B: 20% water + 80% methanol + 10 mM ammonium acetate; gradient (min/%B) 0/0 2.5/0 7.5/30 12.5/30 15/40 20/100 27.5/100. Conditions: stereoisomer not certain.
As to `C=CCOc1ccccc1OCC(O)CNC(C)C` (stereo unspecified), the LC retention time was 8.57 min.
Next, `CN1C2CCC1C(C(=O)O)C(OC(=O)c1ccccc1)C2` (stereo unspecified): 4.81 min; `CC1(C)OC2CC3C4CCC5=CC(=O)C=CC5(C)C4C(O)CC3(C)C2(C(=O)CO)O1` (stereo unspecified): 12.7 min; `CC(C)NCC(O)COc1ccc(COCCOC(C)C)cc1` (stereo unspecified): 8.86 min.
As to `CC(Cc1ccccc1)NCCn1cnc2c1c(=O)n(C)c(=O)n2C` (stereo unspecified), the LC retention time is 8.9 min.
For the compound `CNCCC=C1c2ccccc2CCc2ccccc21`, the LC retention time was 15.6 min.
As to `CC(CCc1ccccc1)NCC(O)c1ccc(O)c(C(N)=O)c1` (stereo unspecified), the LC retention time is 9 min.
For `COc1ccc2c3c1OC1C(=O)CCC4(O)C(C2)N(C)CCC314` (stereo unspecified), the LC retention time was 5.11 min.
Turning to `NC(CC(O)COc1cccc2ccccc12)=NO` (stereo unspecified), the LC retention time is 9.66 min.
With `CC(N)Cc1ccccc1` (stereo unspecified), the LC retention time is 3.77 min.
Next, `CCNC1C2CCC(C2)C1c1ccccc1` (stereo unspecified): 9.1 min; `CCC(=O)C(CC(C)N(C)C)(c1ccccc1)c1ccccc1` (stereo unspecified): 16.5 min.
As for `CNC(C)C(=O)c1ccc(C)cc1` (stereo unspecified), the LC retention time was 6.27 min.
Take `CNC(C)CCC=C(C)C` (stereo unspecified): the LC retention time is 7.13 min.
As for `CNC(C)C(=O)c1ccccc1` (stereo unspecified), the LC retention time is 2.99 min.
On to `CC(C(O)c1ccccc1)N(C)C` (stereo unspecified), for which the LC retention time was 3.27 min.
Next, `COc1cc(Cc2cnc(N)nc2N)cc(OC)c1OC`: 6.44 min; `COCCc1ccc(OCC(O)CNC(C)C)cc1` (stereo unspecified): 7.33 min.
Consider `CC(Cc1ccccc1)NCCC#N` (stereo unspecified), for which the LC retention time is 8.95 min.
On to `CCCCCc1cc(O)c2c(c1)OC(C)(C)C1CCC(C(=O)O)=CC21` (stereo unspecified), for which the LC retention time is 18.9 min.
For the compound `CCN(CC)C(=O)c1ccc(O)c(OC)c1`, the LC retention time was 8.07 min.
With `COc1ccccc1OCCNCC(O)COc1cccc2[nH]c3ccccc3c12` (stereo unspecified), the LC retention time is 15.4 min.
With `CCCC(=O)Nc1ccc(OCC(O)CNC(C)C)c(C(C)=O)c1` (stereo unspecified), the LC retention time was 7.07 min.
Next, `CCCN(CCC)S(=O)(=O)c1ccc(C(=O)O)cc1`: 8.74 min; `CC12CCC(=O)C=C1CCC1C2C(=O)CC2(C)C1CCC2(O)C(=O)CO` (stereo unspecified): 9.34 min.
Turning to `CC(N)C(=O)c1ccccc1` (stereo unspecified), the LC retention time was 8.59 min.
The same measure for `CCN(CC)C(=O)c1cccnc1`: 5.49 min; for `OCc1cc(C(O)CNCCCCCCOCCCCc2ccccc2)ccc1O` (stereo unspecified): 17 min.
In the case of `CC(Cc1ccccc1)N(C)Cc1ccccc1` (stereo unspecified), the LC retention time is 17.8 min.
Regarding `CC(CN1CCOCC1)C(C(=O)N1CCCC1)(c1ccccc1)c1ccccc1` (stereo unspecified), the LC retention time was 19 min.
`CC1CC2C(C(O)CC3(C)C2CCC3(O)C(=O)CO)C2(C)C=CC(=O)C=C12` (stereo unspecified): the LC retention time is 11 min.
For the compound `Cc1cc(C)cc(NC(=O)Cc2ccc(OC(C)(C)C(=O)O)cc2)c1`, the LC retention time was 9.1 min.
In the case of `COC(=O)C1C(OC(=O)c2ccccc2)CC2CCC1N2C` (stereo unspecified), the LC retention time is 8.59 min.
In the case of `CC(C)NCC(O)COc1ccc(CCOCC2CC2)cc1` (stereo unspecified), the LC retention time was 10.2 min.
With `CC(Cc1ccc(O)cc1)NCC(O)c1cc(O)cc(O)c1` (stereo unspecified), the LC retention time is 3.13 min.
Consider `CCC1(O)CCC2C3CCC4=CC(=O)CCC4=C3C=CC21CC` (stereo unspecified), for which the LC retention time was 18.8 min.
As for `c1ccc(CN2CCNCC2)cc1`, the LC retention time is 4.45 min.
Regarding `Cc1ccccc1CC(C)N` (stereo unspecified), the LC retention time is 6.42 min.
Take `CC(C)(N)Cc1ccccc1`: the LC retention time was 4.37 min.
Turning to `CNC(C)C(O)c1ccccc1` (stereo unspecified), the LC retention time was 2.75 min.
On to `CCC(=C(c1ccccc1)c1ccc(OCCN(C)C)cc1)c1ccccc1`, for which the LC retention time is 21.2 min.
As to `CS(=O)(=O)Nc1ccc([N+](=O)[O-])cc1Oc1ccccc1`, the LC retention time was 17.2 min.
Turning to `COC(=O)C1=C(C)NC(C)=C(C(=O)OC)C1c1ccccc1[N+](=O)[O-]`, the LC retention time was 17.2 min.
On to `CNC(C)Cc1ccccc1OC` (stereo unspecified), for which the LC retention time is 6.54 min.
In the case of `CCNC(C)C(=O)c1ccc(C)cc1` (stereo unspecified), the LC retention time is 6.99 min.
Regarding `COc1ccc2c(c1)C13CCCCC1C(C2)N(C)CC3` (stereo unspecified), the LC retention time is 11 min.
Turning to `CC(C)c1c(CN(C)C(C)Cc2ccccc2)n(C)n(-c2ccccc2)c1=O` (stereo unspecified), the LC retention time is 21.3 min.
Consider `CC(C)(C)NCC(O)COc1nsnc1N1CCOCC1` (stereo unspecified), for which the LC retention time is 7.05 min.
Turning to `CNC(C)Cc1ccccc1` (stereo unspecified), the LC retention time was 4.66 min.
Regarding `CC(C)(C#N)c1cc(Cn2cncn2)cc(C(C)(C)C#N)c1`, the LC retention time was 12.2 min.
As to `CNC(C)CC1CCCCC1` (stereo unspecified), the LC retention time is 8.35 min.
For the compound `CN(C)CCC=C1c2ccccc2CCc2ccccc21`, the LC retention time is 17.2 min.
`CC(C)=CCN1CCC2(C)c3cc(O)ccc3CC1C2C` (stereo unspecified): the LC retention time is 9.19 min.
As for `CN(C)C(=O)Oc1cc(OC(=O)N(C)C)cc(C(O)CNC(C)(C)C)c1` (stereo unspecified), the LC retention time was 8.28 min.
As for `CNC(C)C(=O)c1ccc2c(c1)OCO2` (stereo unspecified), the LC retention time is 3.44 min.
`CC(N)Cc1ccc2c(c1)OCO2` (stereo unspecified): the LC retention time was 4.23 min.
For `N=C1NC(=O)C(c2ccccc2)O1` (stereo unspecified), the LC retention time is 3.65 min.
Regarding `CC(C)(C)NCC(O)COc1cccc2c1CCCC2=O` (stereo unspecified), the LC retention time was 7.63 min.
With `C1CCc2nnnn2CC1`, the LC retention time was 2.93 min.
The same measure for `CC12C=CC(=O)C=C1CCC1C2C(O)CC2(C)C1CCC2(O)C(=O)CO` (stereo unspecified): 9.34 min.
With `C#CC1(O)CCC2C3C(C)CC4=C(CCC(=O)C4)C3CCC21C` (stereo unspecified), the LC retention time was 18.6 min.
On to `O=C1CC2OCC=C3CN4CCC56c7ccccc7N1C5C2C3CC46` (stereo unspecified), for which the LC retention time was 6.68 min.
Consider `CC(C)(C)NCC(O)COc1cccc2c1CCC(=O)N2` (stereo unspecified), for which the LC retention time is 4.22 min.
For `CC(C(=O)O)c1cccc(C(=O)c2ccccc2)c1` (stereo unspecified), the LC retention time was 8.05 min.
`CC1C(c2ccccc2)OCCN1C` (stereo unspecified): the LC retention time is 8.08 min.
With `CC(=O)Oc1c(C)cc(OCC(O)CNC(C)C)c(C)c1C` (stereo unspecified), the LC retention time was 9.53 min.
On to `CCCC(Cc1ccccc1)N1CCCC1` (stereo unspecified), for which the LC retention time was 9.51 min.
Next, `Cc1cc(=O)n(-c2ccccc2)n1C`: 5.43 min.
`CC12C=CC(=O)C=C1CCC1C2C(=O)CC2(C)C1CCC2(O)C(=O)CO` (stereo unspecified): the LC retention time is 9.4 min.
`CCC(C(=O)OCCN1CCOC(c2ccccc2)C1C)c1ccccc1` (stereo unspecified): the LC retention time was 21.2 min.
As for `Nc1nc(N)c2nc(-c3ccccc3)c(N)nc2n1`, the LC retention time was 6.51 min.
Take `COc1ccc2c3c1OC1C(O)C=CC4C(C2)N(C)CCC341` (stereo unspecified): the LC retention time was 4.48 min.
The same measure for `CC(=O)OCC(=O)C12N=C(C)OC1CC1C3CCC4=CC(=O)C=CC4(C)C3C(O)CC12C` (stereo unspecified): 15.7 min; for `C#CC1(O)CCC2C3CCC4=CC(=O)CCC4=C3C=CC21CC` (stereo unspecified): 17.5 min.
Regarding `CC(C)NCC(O)COc1cccc2ccccc12` (stereo unspecified), the LC retention time was 9.86 min.
As for `Cc1cccc(Nc2ccccc2C(=O)O)c1C`, the LC retention time was 13 min.

Values taken from the RepoRT retention time repository (doi:10.1016/j.chroma.2015.03.063).
